Here are results for 24 compounds from patent US20140329858A1, “Cyclic Urea Derivatives As Androgen Receptor Antagonists” (priority 2011, published 2014).

This experiment concerns Vcap cells. Briefly: Dihydrotestosterone (DHT) mediated XTT cell proliferation assay for screening AR antagonists using Vcap cells. The following applies: in the presence of 0.2 nM DHT, XTT readout on Day 10, IC50 curves from 8 concentrations. The class given is cell-based. The protocol:
Dihydrotestosterone (DHT) Mediated XTT Cell Proliferation Assay for Screening AR Antagonists Using Vcap cells
The Vcap cells (4×10^6 cells) were seeded in a T-75 flask containing DMEM with 15% FBS. After 72 hours, the media was removed; the cells were washed once and replaced with phenol red free DMEM containing 8% charcoal stripped serum. Then, the cells were starved in phenol red free DMEM with 8% charcoal stripped serum for 5 days. Following the starvation, the cells were harvested and seeded in 96 well plates (10×10^3 cells per well) in phenol red free DMEM with 8% charcoal stripped serum (Day 0). The cells were allowed to settle and on Day 4 they were treated with different concentrations of the compound (30 μM, 10 μM, 1 μM, 500 nM, 100 nM, 10 nM, 1 nM, 0.1 nM) in the presence of 0.2 nM DHT. DHT alone and a DMSO controls were also included. All treatments were done in triplicate. The drugs were replenished on Day 7 and the cells were allowed to grow for another 72 hours. On Day 10, the experiment was terminated by adding the XTT reagent (2,3-bis[2-methoxy-4-notro-5-sulfophenyl]-2H-tetrazolium-5-caboxyanilide inner salt) dissolved in Phenol red free DMEM without serum. The cells with the XTT reagents were incubated inside the CO2 incubator for 3-4 hours for color development; after which the readings were taken at […] using a spectramax Gemini plate reader.
Data fitting: The IC50 curves for the 8 compound concentrations were calculated with GraphPad Prism software using the sigmoidal dose-response function. (Graphpad Software, San Diego, Calif., USA).

As to `Cc1cc(N2C(=O)N(c3ccc(C#N)c(C(F)(F)F)c3)[C@H]3COCC[C@@H]32)ccc1C(N)=O` (racemic) [Example 79, Trans-4-(3-(4-cyano-3-(trifluoromethyl)phenyl)-2-oxohexahydropyrano[3,4-c]imidazol-1(6H)-yl)-2-methylbenzamide (±)], the half-maximal inhibitory concentration (IC50) (Homo sapiens, 240 h) came out at 4330 nM. For the compound `CNC(=O)c1ccc(N2C(=O)N(c3ccc(C#N)c(C(F)(F)F)c3)[C@@H]3CCCCC[C@H]32)cc1F` (relative stereo) [Example 80b, Trans-4-(3-(4-cyano-3-(trifluoromethyl)phenyl)-2-oxooctahydrocyclohepta[d]imidazol-1(2H)-yl)-2-fluoro-N-methylbenzamide (+)], the concentration for half-maximal inhibition (IC50) was determined as 2180 nM. On to `CNC(=O)c1ccc(N2C(=O)N(c3ccc(C#N)c(C(F)(F)F)c3)[C@@H]3CC=CC[C@H]32)cc1F` (racemic) [Example 83, Trans-4-(3-(4-cyano-3-(trifluoromethyl)phenyl)-2-oxo-2,3,3a,4,7,7a-hexahydro-1H-benzo[c]imidazol-1-yl)-2-fluoro-N-methylbenzamide (±)], for which the IC50 (Homo sapiens, 240 h) is 148 nM. For `CN(C)CCCONC(=O)c1ccc(N2C(=O)N(c3ccc(C#N)c(C(F)(F)F)c3)[C@@H]3CCCC[C@H]32)cc1F` (racemic) [Example 25, Trans 4-(3-(4-cyano-3-(trifluoromethyl)phenyl)-2-oxooctahydro-1H-benzo[d]im-idazol-1-yl)-N-(3-(dimethylamino)propoxy)-2-fluorobenzamide (±)], for the setting “Homo sapiens, 240 h”, the IC50 worked out at 42.4 nM. Consider `COCCONC(=O)c1ccc(N2C(=O)N(c3ccc(C#N)c(C(F)(F)F)c3)[C@@H]3CCCC[C@H]32)cc1F` (racemic) [Example 20, Trans-4-(3-(4-cyano-3-(trifluoromethyl)phenyl)-2-oxooctahydro-1H-benzo[d]im-idazol-1-yl)-2-fluoro-N-(2-methoxyethoxy)benzamide (±)], for which the IC50 (Homo sapiens, 240 h) came to 322 nM. As to `N#Cc1ccc(N2C(=O)N(c3ccc(C(=O)NCCO)c(F)c3)[C@@H]3CCCC[C@H]32)cc1C(F)(F)F` (racemic) [Example 32, Trans 4-(3-(4-cyano-3-(trifluoromethyl)phenyl)-2-oxooctahydro-1H-benzo[d]im-idazol-1-yl)-2-fluoro-N-(2-hydroxyethyl)benzamide (±)], the IC50 (Homo sapiens, 240 h) was 377 nM. With `CN1C(=O)N(c2ccc(C#N)c(C(F)(F)F)c2)[C@@H]2CCC(c3ccccc3)=C[C@H]21` (racemic) [Example 91, Trans-4-3-methyl-2-oxo-5-phenyl-2,3,3a,6,7,7a-hexahydro-1H-benzo[d]imidazol-1-yl)-2-(trifluoromethyl)benzonitrile (±)], for the setting “Homo sapiens, 240 h”, the IC50 stood at 323 nM. With `N#Cc1ccc(N2C(=O)N(c3ccc(C#N)c(C(F)(F)F)c3)[C@@H]3CCCC[C@H]32)cc1C(F)(F)F` (racemic) [Example 2, Trans-4,4′-(2-oxohexahydro-1H-benzo[d]imidazole-1,3(2H)-diyl)bis(2-(trifluoromethyl)benzonitrile) (±)], the IC50 (Homo sapiens, 240 h) was found to be 240 nM. With `CC(=O)N(C)c1ccc(N2C(=O)N(c3ccc(C#N)c(C(F)(F)F)c3)[C@@H]3CCCC[C@H]32)cc1F` (racemic) [Example 13, Trans-N-(4-(3-(4-cyano-3-(trifluoromethyl)phenyl)-2-oxooctahydro-1H-benzo[d]imidazol-1-yl)-2-fluorophenyl)-N-methylacetamide (±)], where the note is “Homo sapiens, 240 h”, the IC50 came to 1050 nM.

Turning to `CNC(=O)c1ccc(N2C(=O)N(c3ccc(C#N)c(C(F)(F)F)c3)[C@@H]3CCCC[C@H]32)cc1F` (relative stereo) [Example 1b, Trans-4-{3-[4-cyano-3-(trifluoromethyl)phenyl]-2-oxo-octahydro-1H-1,3-benzodiazol-1-yl}-2-fluoro-N-Methylbenzamide (−)], the IC50 stood at 90.5 nM. For the compound `N#Cc1ccc(N2C(=O)N(Cc3ccc(-n4ccnc4)nc3)[C@@H]3CCCC[C@H]32)cc1C(F)(F)F` (racemic) [Example 49, Trans-4-(34(6-(1H-imidazol-1-yl)pyridin-3-yl)methyl)-2-oxooctahydro-1H-benzo[d]imidazol-1-yl)-2-(trifluoromethyl)benzonitrile (±)], the IC50 (Homo sapiens, 240 h) is 300 nM. With `N#Cc1ccc(N2C(=O)N(c3ccnc(C(N)=O)c3)[C@H]3CCCC[C@@H]32)cc1C(F)(F)F` [Example 57, 4-((3aS,7aS)-3-(4-cyano-3-(trifluoromethyl)phenyl)-2-oxooctahydro-1H-benzo[d]imidazol-1-yl)picolinamide], the IC50 (Homo sapiens, 240 h) was determined as 265 nM. Take `N#Cc1ccc(N2C(=O)N(c3ccc(Cl)cc3)[C@H]3CCCC[C@@H]32)cc1C(F)(F)F` [Example 61, 4-((3aS,7aS)-3-(4-chlorophenyl)-2-oxooctahydro-1H-benzo[d]imidazol-1-yl)-2-(trifluoromethyl)benzonitrile]: where the note is “Homo sapiens, 240 h”, the concentration for half-maximal inhibition (IC50) worked out at 348 nM. Consider `N#Cc1ccc(N2C(=O)N(c3ccc(C#N)c(C(F)(F)F)c3)[C@@H]3CCCC[C@H]32)cc1C(F)(F)F` (relative stereo) [Example 2b, Trans-4,4′-(2-oxohexahydro-1H-benzo[d]imidazole-1,3(2H)-diyl)bis(2-(trifluoromethyl)benzonitrile) (+)], for which the IC50 is greater than 10000 nM. Turning to `N#Cc1ccc(N2C(=O)N(c3ccc(C(=O)N[C@@H]4CCOC4)c(F)c3)[C@@H]3CCCC[C@H]32)cc1C(F)(F)F` (mixture of isomers) [Example 34, 4-((3aR,7aR)-3-(4-cyano-3-(trifluoromethyl)phenyl)-2-oxooctahydro-1H-benzo[d]imidazol-1-yl)-2-fluoro-N—((R)-tetrahydrofuran-3-yl)benzamide and 4-((3aS,7aS)-3-(4-cyano-3-(trifluoromethyl)phenyl)-2-oxooctahydro-1H-benzo[d]imidazol-1-yl)-2-fluoro-N—((R)-tetrahydrofuran-3-yl)benzamide], the half-inhibitory concentration (IC50) (Homo sapiens, 240 h) was found to be 317 nM. Take `CCOC(=O)c1ccc(N2C(=O)N(c3ccc(C#N)c(C(F)(F)F)c3)[C@@H]3CCCC[C@H]32)s1` (racemic) [Example 8, Trans-ethyl-5-(3-(4-cyano-3-(trifluoromethyl)phenyl)-2-oxooctahydro-1H-benzo[d]imidazol-1-yl)thiophene-2-carboxylate (±)]: the IC50 (Homo sapiens, 240 h) was greater than 10000 nM. On to `CNC(=O)c1ccc(N2C(=O)N(c3ccc(C#N)c(C(F)(F)F)c3)C3CCC(O)CC32)cc1F` (single isomer, unassigned) [Example 82b, Trans-4-(3-(4-cyano-3-(trifluoromethyl)phenyl)-6-hydroxy-2-oxooctahydro-1H-benzo[d]imidazol-1-yl)-2-fluoro-N-methylbenzamide (−)], for which the IC50 stood at 312 nM. `CC(COC(C)(C)C)ONC(=O)c1ccc(N2C(=O)N(c3ccc(C#N)c(C(F)(F)F)c3)[C@@H]3CCCC[C@H]32)cc1F` (mixture of isomers) [Example 23, Trans-N-((1-(tert-butoxy)propan-2-yl)oxy)-4-(3-(4-cyano-3-(trifluoromethyl)phenyl)-2-oxooctahydro-1H-benzo[d]imidazol-1-yl)-2-fluorobenzamide (±)]: the IC50 was greater than 10000 nM. On the same count and under the same terms, the same measure for `CNC(=O)c1ccc(N2C(=O)N(c3ccc(C#N)c(C(F)(F)F)c3)[C@@H]3CCCC[C@H]32)cc1F` (relative stereo) [Example 1a, Trans-4-{3-[4-cyano-3-(trifluoromethyl)phenyl]-2-oxo-octahydro-1H-1,3-benzodiazol-1-yl}-2-fluoro-N-Methylbenzamide (+)]: greater than 10000 nM. Regarding `N#Cc1ccc(N2C(=O)N(c3cccc(S(N)(=O)=O)n3)[C@@H]3CCCC[C@H]32)cc1C(F)(F)F` (racemic) [Example 9, Trans-6-(3-(4-cyano-3-(trifluoromethyl)phenyl)-2-oxooctahydro-1H-benzo[c]imidazol-1-yl) pyridine-2-sulfonamide (±)], the IC50 (Homo sapiens, 240 h) was greater than 10000 nM. Turning to `N#Cc1ccc(N2C(=O)N(Cc3ccc(Cl)nc3)[C@@H]3CCCC[C@H]32)cc1C(F)(F)F` (racemic) [Example 47, Trans-4-(3-((6-chloropyridin-3-yl)methyl)-2-oxooctahydro-1H-benzo[d]imidazol-1-yl)-2-(trifluoromethyl)benzonitrile (±)], the IC50 (Homo sapiens, 240 h) was 61.6 nM. Regarding `Cc1cc(N2C(=O)N(c3ccc(C#N)c(C(F)(F)F)c3)[C@@H]3COCC[C@H]32)ccn1` (racemic) [Example 72, Trans-4-(1-(2-methylpyridin-4-yl)-2-oxohexahydropyrano[3,4-d]imidazol-3(2H)-yl)-2-(trifluoromethyl)benzonitrile (±)], for the setting “Homo sapiens, 240 h”, the half-maximal inhibitory concentration (IC50) was greater than 10000 nM.

On to `CNC(=O)c1ccc(N2C(=O)N(c3ccc(C#N)c(C(F)(F)F)c3)[C@H]3C=CCC[C@@H]32)cc1F` (racemic) [Example 86, trans-4-(3-(4-cyano-3-(trifluoromethyl)phenyl)-2-oxo-2,3,3a,6,7,7a-hexahydro-1H-benzo[c]imidazol-1-yl)-2-fluoro-N-methylbenzamide (±)], for which the IC50 (Homo sapiens, 240 h) amounted to 43 nM. The same measure, in the same setting: the same measure for `N#Cc1ccc(N2C(=O)N(c3ccc4c(c3)CCO4)[C@H]3CCCC[C@@H]32)cc1C(F)(F)F` [Example 58, 4-((3aS,7aS)-3-(2,3-dihydrobenzofuran-5-yl)-2-oxooctahydro-1H-benzo[d]imidazol-1-yl)-2-(trifluoromethyl)benzonitrile]: 547 nM.

What is called IC50 is the point on the concentration scale where inhibition reaches its midpoint.
